Structures can show the parent of a compound that is named as a salt.
molecular target: T1, human recombinant 6His-Nterm SHP2 full-length (Thr2-Arg593) (Homo sapiens, UniProt Q06124); assay: SHP2 Phosphatase Assay (DiFMUP fluorescence); type: biochemical; settings: SHP2 0.2 nM pre-incubated with 100 nM bi-phosphorylated activating peptide; compound 1000-0.05 nM, 30 min pre-incubation; DiFMUP 20 µM, 45 min, room temperature; 10-concentration dose-response
T1 construct: 6His-Nterm SHP2 full-length (Thr2-Arg593, R&D system); 6His (N); purchased R&D system
T1 sequence (Q06124 2-593): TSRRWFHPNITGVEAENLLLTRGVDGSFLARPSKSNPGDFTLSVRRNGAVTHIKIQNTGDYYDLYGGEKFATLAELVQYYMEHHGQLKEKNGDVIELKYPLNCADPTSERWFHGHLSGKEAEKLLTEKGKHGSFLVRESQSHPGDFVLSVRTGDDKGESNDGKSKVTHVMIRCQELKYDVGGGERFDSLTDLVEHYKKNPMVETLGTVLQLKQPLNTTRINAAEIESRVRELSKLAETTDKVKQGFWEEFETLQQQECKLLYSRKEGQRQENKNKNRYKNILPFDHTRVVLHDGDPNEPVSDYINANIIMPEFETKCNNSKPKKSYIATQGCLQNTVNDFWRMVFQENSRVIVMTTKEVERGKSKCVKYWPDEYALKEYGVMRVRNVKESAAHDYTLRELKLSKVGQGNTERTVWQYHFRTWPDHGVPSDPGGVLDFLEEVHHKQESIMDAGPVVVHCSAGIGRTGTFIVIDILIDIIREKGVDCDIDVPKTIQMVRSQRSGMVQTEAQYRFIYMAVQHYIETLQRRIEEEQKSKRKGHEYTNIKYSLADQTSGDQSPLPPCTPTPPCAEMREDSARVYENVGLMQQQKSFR
Procedure, shortened: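 SHP2 (0.2 nM) preactivated ≥10 min with 100 nM bis-phosphorylated peptide, then 30 min with compound (10 concentrations, 1000–0.05 nM) at room temperature, pH 7.2 HEPES buffer with DTT. DiFMUP (20 µM, added solution) reacted 45 min, pervanadate-stopped; fluorescence 350/450 nm. IC50 by 4-parameter logistic fit.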

Row | Structure (SMILES) | IC50 [nM]
1 | Cc1nc(N2CCC3(CC2)Cc2ncccc2[C@H]3N)c2ccnn2c1-c1ccnc(C(C)C)c1Cl [Compound 7, (5S)-1'-[7-(3-chloro-2-isopropyl-4-pyridyl)-6-methyl-pyrazolo[1,5-a]pyrazin-4-yl]spiro[5,7-dihydrocyclopenta[b]pyridine-6,4'-piperidine] -5-amine hydrochloride] | 13
2 | Cc1nc(N2CCC3(CC2)Cc2nc(C(F)F)ccc2[C@H]3N)c2ccnn2c1-c1cnn(C)c1C [Compound 61, (5S)-2-(difluoromethyl)-1'-[7-(1,5-dimethylpyrazol-4-yl)-6-methyl-pyrazolo[1,5-a]pyrazin-4-yl]spiro [5,7-dihydrocyclopenta[b]pyridine-6,4'-piperidine]-5-amine] | 211
3 | Cc1nc(N2CCC3(CC2)Cc2nccnc2[C@H]3N)c2ccnn2c1-c1ccccc1F [Compound 63, (5S)-1'-[7-(2-fluorophenyl)-6-methyl-pyrazolo[1,5-a]pyrazin-4-yl]spiro[5,7-dihydrocyclopenta[b]pyrazine-6,4'-piperidine]-5-amine] | 112
4 | Cc1nccc(-c2c(C)nc(N3CCC4(CC3)Nc3ccccc3[C@H]4N)c3ccnn23)c1Cl [Compound 154, (3R)-1'-[7-(3-chloro-2-methyl-4-pyridyl)-6-methyl-pyrazolo[1,5-a]pyrazin-4-yl]spiro[indoline-2,4'-piperidine]-3-amine hydrochloride] | 4
5 | COc1c(F)ccc(-c2c(C)nc(N3CCC4(CC3)Cc3ncccc3[C@H]4N)c3ccnn23)c1F [Compound 5, (5S)-1'-[7-(2,4-difluoro-3-methoxy-phenyl)-6-methyl-pyrazolo [1 ,5-a]pyrazin-4-yl]spiro[5,7-dihydrocyclopenta[b]pyridine-6,4'-piperidine] -5-amine] | 3
6 | Cc1cnc2c(c1)[C@@H](N)C1(CCN(c3nc(C)c(-c4ccnc(C)c4Cl)n4nccc34)CC1)C2 [Compound 43, (5S)-1'-[7-(3-chloro-2-methyl-4-pyridyl)-6-methyl-pyrazolo[1,5-a]pyrazin-4-yl]-3-methyl-spiro[5,7-dihydrocyclopenta[b]pyridine-6,4'-piperidine]-5-amine] | 4
7 | COc1ccc2c(n1)CC1(CCN(c3nc(C)c(-c4ccccc4F)n4nccc34)CC1)[C@@H]2N [Compound 56, (5S)-1'-[7-(2-fluorophenyl)-6-methyl-pyrazolo[1,5-a]pyrazin-4-yl]-2-methoxy-spiro[5,7-dihydrocyclopenta[b]pyridine-6,4'-piperidine]-5-amine] | 17
8 | Cc1nccc(-c2c(C)nc(N3CCC4(CC3)Oc3ccccc3[C@H]4N)c3ccnn23)c1Cl [Compound 128, (3R)-1'-[7-(3-chloro-2-methyl-4-pyridyl)-6-methyl-pyrazolo[1,5-a]pyrazin-4-yl]spiro[3H-benzofuran-2,4'-piperidine]-3-amine] | 17
9 | COc1ccc2c(c1)[C@@H](N)C1(CCN(c3nc(C)c(-c4cnn(C)c4C)n4nccc34)CC1)C2 [Compound 120, (1S)-1'-[7-(1,5-dimethylpyrazol-4-yl)-6-methyl-pyrazolo[1,5-a]pyrazin-4-yl]-6-methoxy-spiro[indane-2,4'-piperidine]-1-amine hydrochloride] | 11
10 | Cc1nc(N2CCC3(CC2)Cc2ncccc2[C@H]3N)c2ccnn2c1-c1cc2ccccc2n1C [Compound 50, (5S)-1'-[6-methyl-7-(1-methylindol-2-yl)pyrazolo[1,5-a]pyrazin-4-yl]spiro[5,7-dihydrocyclopenta[b]pyridine-6,4'-piperidine]-5-amine] | 10
11 | Cc1nc(N2CCC3(CC2)Cc2ncccc2[C@H]3N)c2ccnn2c1-c1cccc(F)c1F [Compound 1, (5S)-1'-[7-(2,3-difluorophenyl)-6-methyl-pyrazolo[1,5-a]pyrazin-4-yl]spiro[5,7-dihydrocyclopenta[b]pyridine-6,4'-piperidine]-5-amine] | 6
12 | COc1cccc2c1CC1(CCN(c3nc(C)c(-c4cnn(C)c4C)n4nccc34)CC1)[C@@H]2N [Compound 111, (1S)-1-[7-(1,5-dimethylpyrazol-4-yl)-6-methyl-pyrazolo[1,5-a]pyrazin-4-yl] -4-methoxy-spiro[indane-2,4'-piperidine]-1-amine] | 16
13 | Cc1nc(N2CCC3(CC2)Oc2ncccc2[C@H]3N)c2ccnn2c1-c1ccc(F)c2cc[nH]c12 [Compound 16, (3R)-1'-[7-(4-fluoro-1H-indol-7-yl)-6-methyl-pyrazolo[1,5-a]pyrazin-4-yl]spiro[3H-furo[2,3-b]pyridine-2,4'-piperidine]-3-amine] | 42
14 | Cc1cc2c(cn1)CC1(CCN(c3nc(C)c(-c4cccc(C#N)c4F)n4nccc34)CC1)[C@@H]2N [Compound 117, 3-[4-[(5S)-5-amino-3-methyl-spiro[5,7-dihydrocyclopenta[c]pyridine-6,4'-piperidine]-1'-yl]-6-methyl-pyrazolo[1,5-a]pyrazin-7-yl]-2-fluoro-benzonitrile hydrochloride] | 10
15 | Cc1nccc(-c2c(C)nc(N3CCC4(CC3)Cc3ncccc3[C@H]4N)c3ccnn23)c1Cl [Compound 45, (5S)-1'-[7-(3-cldoro-2-methyl-4-pyridyl)-6-methyl-pyrazolo[1,5-a]pyrazin-4-yl]spiro[5,7-dihydrocyclopenta[b]pyridine-6,4'-piperidine]-5-amine] | 8

The next lines start with the values.

Row | IC50 [nM] | Structure (SMILES)
16 | 23 | COc1ccc2c(n1)[C@@H](N)C1(CCN(c3nc(C)c(-c4cccc(F)c4Cl)n4nccc34)CC1)C2 [Compound 215, (7S)-1'-[7-(2-chloro-3-fluoro-phenyl)-6-methyl-pyrazolo[1,5-a]pyrazin-4-yl]-2-methoxy-spiro[5,7-dihydrocyclopenta[b]pyridine-6,4'-piperidine]-7-amine]
17 | 3 | Cc1nc(N2CCC3(CC2)Cc2ncccc2[C@H]3N)c2ccnn2c1-c1ccc(F)cc1F [Compound 193, (5S)-1'-[7-(2,4-difluorophenyl)-6-methyl-pyrazolo[1,5-a]pyrazin-4-yl]spiro[5,7-dihydrocyclopenta[b]pyridine-6,4'-piperidine]-5-amine]
18 | 21 | Cc1nc(N2CCC3(CC2)Cc2ncc(C#N)cc2[C@H]3N)c2ccnn2c1-c1ccccc1F [Compound 209, (5S)-5-amino-1'-[7-(2-fluorophenyl)-6-methyl-pyrazolo[1,5-a]pyrazin-4-yl]spiro[5,7-dihydrocyclopenta[b]pyridine-6,4'-piperidine]-3-carbonitrile]
19 | 5 | COc1nc2c(s1)[C@@H](N)C1(CCN(c3nc(C)c(-c4ccnc(C)c4Cl)n4nccc34)CC1)C2 [Compound 219, (6S)-1'-[7-(3-chloro-2-methyl-4-pyridyl)-6-methyl-pyrazolo[1,5-a]pyrazin-4-yl]-2-methoxy-spiro[4,6-dihydrocyclopenta[d]thiazole-5,4'-piperidine]-6-amine]
20 | 594 | COc1ccc2c(n1)[C@H](N)C1(CCN(c3nc(C)c(-c4cccc(F)c4F)n4nccc34)CC1)C2 [Compound 214, (7R)-1'-[7-(2,3-difluorophenyl)-6-methyl-pyrazolo [1,5-a]pyrazin-4-yl]-2-methoxy-spiro[5,7-dihydrocyclopenta[b]pyridine-6,4'-piperidine]-7-amine]
21 | 9 | Cc1nccc(-c2c(C)nc(N3CCC4(CC3)Cc3ccccc3[C@H]4N)c3ccnn23)c1F [Compound 151, (1S)-1'-[7-(3-fluoro-2-methyl-4-pyridyl)-6-methyl-pyrazolo [1 ,5-a]pyrazin-4-yl]spiro[indane-2,4'-piperidine]-1-amine]
22 | 5 | Cc1nc(N2CCC3(CC2)Cc2ncccc2[C@H]3N)c2ccnn2c1-c1ccsc1 [Compound 194, (5S)-1'-[6-methyl-7-(3-thienyl)pyrazolo[1,5-a]pyrazin-4-yl]spiro[5,7-dihydrocyclopenta[b]pyridine-6,4'-piperidine]-5-amine]
23 | 7 | COc1ccc(-c2c(C)nc(N3CCC4(CC3)Cc3ncccc3[C@H]4N)c3ccnn23)c(F)c1 [Compound 185, (5S)-1'-[7-(2-fluoro-4-methoxy-phenyl)-6-methyl-pyrazolo[1,5-a]pyrazin-4-yl]spiro[5,7-dihydrocyclopenta[b]pyridine-6,4'-piperidine]-5-amine]
24 | 6 | Cc1nc(N2CCC3(CC2)Cc2ncccc2[C@H]3N)c2ccnn2c1-c1cccc(F)c1 [Compound 203, (5S)-1'-[7-(3-fluorophenyl)-6-methyl-pyrazolo[1,5-a]pyrazin-4-yl]spiro[5,7-dihydrocyclopenta[b]pyridine-6,4'-piperidine]-5-amine]
25 | 5 | Cc1nc(N2CCC3(CC2)Cc2ncccc2[C@H]3N)c2ccnn2c1-c1cccc(C(F)(F)F)c1F [Compound 174, (5S)-1'-[7-[2-fluoro-3-(trifluoromethyl)phenyl] -6-methyl-pyrazolo[1,5-a]pyrazin-4-yl]spiro[5,7-dihydrocyclopenta[b]pyridine-6,4'-piperidine]-5-amine]
